Test results from ChEMBL document CHEMBL1201862, “PubChem BioAssay data set” (2004).
Active and inactive are the calls of the source.

Legend:
INS1 = assay: INS-1E survival protection against cytokine death – cell-based, luminescence, retest, dose response (AID 449756); type: functional; conditions: Rattus norvegicus;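 also: cell death triggered by IL-1 beta plus TNF-alpha plus IFN-gamma mixture; protective hits raise ATP signal compared with cytokine alone wells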
Bcl-2-related protein A1 = molecular target: T1, Bcl-2-related protein A1 (Mus musculus, UniProt Q07440); type: functional;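 also: confirmatory dose–response counterscreen on Bfl-1, used to check hits from a UBC13 polyubiquitin inhibitor campaign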
T1 sequence (Q07440 whole entry): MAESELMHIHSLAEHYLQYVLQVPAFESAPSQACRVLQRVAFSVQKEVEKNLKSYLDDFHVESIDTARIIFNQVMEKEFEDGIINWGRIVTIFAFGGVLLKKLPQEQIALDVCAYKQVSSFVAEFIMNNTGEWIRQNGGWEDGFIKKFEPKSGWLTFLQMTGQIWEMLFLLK

[1] = molecular target: T2, Ubiquitin-conjugating enzyme E2 N (Homo sapiens, UniProt P61088); type: functional
T2 sequence (P61088 whole entry): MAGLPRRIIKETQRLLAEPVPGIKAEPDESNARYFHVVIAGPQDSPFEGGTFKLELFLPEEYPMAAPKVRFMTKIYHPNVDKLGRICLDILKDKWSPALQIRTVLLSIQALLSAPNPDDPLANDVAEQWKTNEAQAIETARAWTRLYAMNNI

[2] = Counterscreen for AddAB inhibitors: absorbance-based bacterial cell-based high throughput dose response assay for inhibitors of bacterial viability. [Related pubchem assays (depositor defined):AID435030, AID449728, AID449731, AID488942, AID488955, AID488956]; type: functional
[3] = molecular target: T2, Ubiquitin-conjugating enzyme E2 N; type: functional; remark: listed apart in the source
Exodeoxyribonuclease V = Exodeoxyribonuclease V (Escherichia coli (strain K12), UniProt P04993+P07648+P08394); assay: RecBCD inhibition via phage-restricted bacterial growth – absorbance, V66 E. coli, mutant T4 phage, counter-screen for AddAB inhibitor project, dose response (AID 492957); type: functional, cell-based, Escherichia coli str. K-12 substr. MG1655
[4] = Luminescence Cell-Based Dose Retest to Confirm Inhibitors of Cancer Stem Cells. [Related pubchem assays (depositor defined):AID2717, AID2721]; type: functional; conditions: Homo sapiens
[5] = viability loss of HMLE_sh_eGFP cells – cell-based, luminescence, counter-screen for HMLE_sh_ECad selective toxicity project, dose response (AID 463074); type: functional, Homo sapiens;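 also: HMLE human mammary epithelial cells expressing control shRNA against eGFP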
CAAX prenyl protease 1 = CAAX prenyl protease 1 (Saccharomyces cerevisiae S288c, UniProt P47154); assay: yeast CAAX protease Ste24 inhibition – biochemical, S. cerevisiae, plate reader, cherry-pick, dose response (AID 488815)
[6] = molecular target: T3, Kappa-type opioid receptor (Homo sapiens, UniProt P41145); assay: kappa opioid receptor activation potency – imaging, image-based, SAR follow-up (AID 2359); type: functional
[7] = molecular target: T4, Delta-type opioid receptor (Homo sapiens, UniProt P41143); assay: delta opioid receptor blockers – image-based, SAR follow-up (AID 2357); type: functional
[8] = molecular target: T4, Delta-type opioid receptor; assay: DOR agonists, SAR follow-up, image-based (AID 2370); type: functional
[9] = molecular target: T3, Kappa-type opioid receptor; assay: SAR analysis of small molecule agonists of the kappa opioid receptor via a luminescent beta-arrestin assay. [Related pubchem assays (depositor defined):AID1777, AID1786, AID1966, AID2133, AID2136, AID2348, AID2352, AID2357, AID2359, AID2370, AID2420, AID2478, AID2491, AID2492, AID2493, AID2497, AID2498, AID2500, AID449737, AID488822, AID488842]; type: functional
[10] = molecular target: T3, Kappa-type opioid receptor; assay: kappa opioid receptor blockers, image-based, SAR follow-up (AID 2348); type: functional
Mu-type opioid receptor [11] = molecular target: T5, Mu-type opioid receptor (Homo sapiens, UniProt P35372); assay: mu opioid receptor blockers – image-based, SAR follow-up (AID 2420); type: functional;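 also: compounds added before stimulation of receptor with agonist DAMGO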
Mu-type opioid receptor [12] = molecular target: T5, Mu-type opioid receptor; assay: mu opioid receptor activators, image-based, SAR follow-up (AID 2352); type: functional

T3 sequence (P41145 whole entry): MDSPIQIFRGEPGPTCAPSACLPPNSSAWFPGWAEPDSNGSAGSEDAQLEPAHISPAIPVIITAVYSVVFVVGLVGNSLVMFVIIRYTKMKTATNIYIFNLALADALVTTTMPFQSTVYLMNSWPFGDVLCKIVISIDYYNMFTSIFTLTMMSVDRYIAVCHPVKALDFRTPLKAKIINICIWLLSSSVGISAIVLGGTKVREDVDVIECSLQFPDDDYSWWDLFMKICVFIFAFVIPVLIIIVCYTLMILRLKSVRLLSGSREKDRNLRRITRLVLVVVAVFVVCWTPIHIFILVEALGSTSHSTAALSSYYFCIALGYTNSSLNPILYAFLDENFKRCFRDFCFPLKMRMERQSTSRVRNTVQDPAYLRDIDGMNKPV
T4 sequence (P41143 whole entry): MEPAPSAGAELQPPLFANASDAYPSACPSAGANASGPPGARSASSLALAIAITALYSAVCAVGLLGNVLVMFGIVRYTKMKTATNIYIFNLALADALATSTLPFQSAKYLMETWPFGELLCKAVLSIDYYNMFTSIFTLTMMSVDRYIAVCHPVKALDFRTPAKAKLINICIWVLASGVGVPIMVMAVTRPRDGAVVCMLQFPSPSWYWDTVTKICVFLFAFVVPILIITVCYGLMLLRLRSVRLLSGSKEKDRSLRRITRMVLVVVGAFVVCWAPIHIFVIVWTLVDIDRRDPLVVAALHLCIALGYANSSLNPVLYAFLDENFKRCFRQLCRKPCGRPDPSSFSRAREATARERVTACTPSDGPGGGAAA
T5 sequence (P35372 whole entry): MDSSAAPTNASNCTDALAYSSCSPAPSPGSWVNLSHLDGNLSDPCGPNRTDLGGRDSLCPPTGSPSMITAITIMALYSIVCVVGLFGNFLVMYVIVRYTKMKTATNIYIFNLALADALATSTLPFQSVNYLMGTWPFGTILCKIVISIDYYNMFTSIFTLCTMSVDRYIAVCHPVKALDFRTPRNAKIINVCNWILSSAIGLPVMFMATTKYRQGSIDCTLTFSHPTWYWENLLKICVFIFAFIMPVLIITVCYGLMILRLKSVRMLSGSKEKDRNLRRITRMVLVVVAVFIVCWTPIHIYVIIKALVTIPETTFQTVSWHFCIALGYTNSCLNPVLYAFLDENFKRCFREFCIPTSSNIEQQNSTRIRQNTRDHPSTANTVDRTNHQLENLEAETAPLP
CAAX prenyl protease 1, sequence (P47154 whole entry): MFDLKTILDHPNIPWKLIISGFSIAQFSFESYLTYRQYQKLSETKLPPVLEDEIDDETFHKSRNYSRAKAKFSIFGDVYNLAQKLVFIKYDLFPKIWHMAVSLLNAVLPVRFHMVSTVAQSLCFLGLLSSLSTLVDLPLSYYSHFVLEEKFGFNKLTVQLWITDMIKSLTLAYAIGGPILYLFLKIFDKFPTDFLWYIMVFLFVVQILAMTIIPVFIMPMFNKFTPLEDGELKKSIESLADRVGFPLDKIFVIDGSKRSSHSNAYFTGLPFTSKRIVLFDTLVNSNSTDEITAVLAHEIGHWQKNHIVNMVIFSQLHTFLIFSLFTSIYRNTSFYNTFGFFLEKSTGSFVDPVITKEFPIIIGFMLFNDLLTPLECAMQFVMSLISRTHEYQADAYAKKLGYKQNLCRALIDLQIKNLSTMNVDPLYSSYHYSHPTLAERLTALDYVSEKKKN
Exodeoxyribonuclease V, sequence (P04993 whole entry): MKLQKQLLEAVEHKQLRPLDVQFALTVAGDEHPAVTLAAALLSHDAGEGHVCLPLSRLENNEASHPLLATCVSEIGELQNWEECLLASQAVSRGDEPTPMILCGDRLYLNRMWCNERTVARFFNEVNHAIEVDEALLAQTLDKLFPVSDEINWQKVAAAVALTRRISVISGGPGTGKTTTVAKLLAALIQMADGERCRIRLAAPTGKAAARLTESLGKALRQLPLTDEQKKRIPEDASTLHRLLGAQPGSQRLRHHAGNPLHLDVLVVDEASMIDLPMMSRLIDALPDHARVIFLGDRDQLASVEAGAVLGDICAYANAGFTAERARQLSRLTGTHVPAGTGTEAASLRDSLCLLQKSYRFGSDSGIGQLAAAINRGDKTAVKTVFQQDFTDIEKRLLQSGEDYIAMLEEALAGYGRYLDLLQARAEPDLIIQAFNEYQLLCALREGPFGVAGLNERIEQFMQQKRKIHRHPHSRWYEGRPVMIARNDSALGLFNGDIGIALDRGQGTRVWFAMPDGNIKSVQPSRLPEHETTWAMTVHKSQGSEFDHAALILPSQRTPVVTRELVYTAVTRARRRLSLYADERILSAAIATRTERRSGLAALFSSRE
Exodeoxyribonuclease V, sequence (P07648 whole entry): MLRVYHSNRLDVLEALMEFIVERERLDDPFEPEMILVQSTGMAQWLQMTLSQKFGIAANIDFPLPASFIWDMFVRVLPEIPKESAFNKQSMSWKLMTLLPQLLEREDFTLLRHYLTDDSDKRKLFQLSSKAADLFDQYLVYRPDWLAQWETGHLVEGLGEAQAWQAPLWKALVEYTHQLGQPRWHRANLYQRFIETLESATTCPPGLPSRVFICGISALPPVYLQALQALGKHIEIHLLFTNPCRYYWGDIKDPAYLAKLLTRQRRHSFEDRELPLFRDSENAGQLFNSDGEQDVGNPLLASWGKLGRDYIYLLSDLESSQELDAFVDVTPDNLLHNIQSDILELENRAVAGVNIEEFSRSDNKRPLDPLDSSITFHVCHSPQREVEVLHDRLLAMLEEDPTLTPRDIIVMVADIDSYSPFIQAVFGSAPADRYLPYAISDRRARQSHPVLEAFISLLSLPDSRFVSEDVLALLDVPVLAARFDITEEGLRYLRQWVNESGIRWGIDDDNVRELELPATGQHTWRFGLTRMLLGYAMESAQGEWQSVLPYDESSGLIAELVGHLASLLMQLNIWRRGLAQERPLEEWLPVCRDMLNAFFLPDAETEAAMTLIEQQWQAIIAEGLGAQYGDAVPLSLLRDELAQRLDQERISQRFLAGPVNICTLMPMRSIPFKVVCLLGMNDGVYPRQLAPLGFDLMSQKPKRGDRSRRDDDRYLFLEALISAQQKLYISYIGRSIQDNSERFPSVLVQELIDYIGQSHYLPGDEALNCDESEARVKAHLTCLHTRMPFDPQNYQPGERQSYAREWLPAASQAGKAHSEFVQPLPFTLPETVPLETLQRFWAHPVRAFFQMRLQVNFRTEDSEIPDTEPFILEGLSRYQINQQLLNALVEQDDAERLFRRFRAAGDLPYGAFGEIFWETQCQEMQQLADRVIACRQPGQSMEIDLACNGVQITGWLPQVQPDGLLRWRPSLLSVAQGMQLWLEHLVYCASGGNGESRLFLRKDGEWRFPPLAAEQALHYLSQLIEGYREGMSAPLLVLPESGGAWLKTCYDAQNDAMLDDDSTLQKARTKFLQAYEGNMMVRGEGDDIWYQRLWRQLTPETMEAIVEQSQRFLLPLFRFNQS
Exodeoxyribonuclease V, sequence (P08394 whole entry): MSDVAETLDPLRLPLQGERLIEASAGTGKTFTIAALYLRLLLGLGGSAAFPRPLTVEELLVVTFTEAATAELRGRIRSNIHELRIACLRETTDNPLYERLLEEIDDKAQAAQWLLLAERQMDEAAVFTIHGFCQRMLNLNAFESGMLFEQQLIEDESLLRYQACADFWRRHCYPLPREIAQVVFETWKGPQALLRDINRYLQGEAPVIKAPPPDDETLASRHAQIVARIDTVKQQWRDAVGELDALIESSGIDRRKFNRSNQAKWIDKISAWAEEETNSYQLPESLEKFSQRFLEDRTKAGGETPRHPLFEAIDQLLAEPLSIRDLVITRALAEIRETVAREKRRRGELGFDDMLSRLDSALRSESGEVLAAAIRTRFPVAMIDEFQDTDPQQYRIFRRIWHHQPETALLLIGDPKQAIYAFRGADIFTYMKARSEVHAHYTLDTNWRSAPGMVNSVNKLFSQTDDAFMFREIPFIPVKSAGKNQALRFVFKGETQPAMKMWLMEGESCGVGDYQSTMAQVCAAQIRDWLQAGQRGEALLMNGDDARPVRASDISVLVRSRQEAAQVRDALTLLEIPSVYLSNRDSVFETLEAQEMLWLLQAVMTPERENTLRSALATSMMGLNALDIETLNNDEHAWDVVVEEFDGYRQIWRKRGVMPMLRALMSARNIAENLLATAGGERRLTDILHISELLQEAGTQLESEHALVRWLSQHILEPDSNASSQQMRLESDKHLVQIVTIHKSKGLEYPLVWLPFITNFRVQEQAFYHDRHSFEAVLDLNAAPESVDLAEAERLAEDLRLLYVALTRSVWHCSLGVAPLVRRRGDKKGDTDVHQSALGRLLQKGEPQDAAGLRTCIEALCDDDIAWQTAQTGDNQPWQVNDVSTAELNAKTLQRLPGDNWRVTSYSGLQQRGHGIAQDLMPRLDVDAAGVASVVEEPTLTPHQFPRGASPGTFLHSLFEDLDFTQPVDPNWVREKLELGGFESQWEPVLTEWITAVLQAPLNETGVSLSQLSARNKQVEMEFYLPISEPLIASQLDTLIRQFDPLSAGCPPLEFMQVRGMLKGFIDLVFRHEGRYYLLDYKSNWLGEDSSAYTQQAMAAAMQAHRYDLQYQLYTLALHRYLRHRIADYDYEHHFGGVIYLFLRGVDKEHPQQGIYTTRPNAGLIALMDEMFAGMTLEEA

CCC[C@@H](CN1CCC[C@H]1CN1C(N)=NC[C@@H]1Cc1ccccc1)N1C[C@@H]([C@H](C)CC)N(CCCC2CCCC2)C1=N
AC50 (INS1): 7.33 µM (active)
IC50 (Bcl-2-related protein A1): > 20 µM (inactive)
IC50 [1]: 10.9 µM (active)
IC50 [2]: 17.5 µM (inactive)
IC50 [3]: 8.52 µM (active)
IC50 (Exodeoxyribonuclease V): 15.2 µM (inactive)

COc1ccc(-c2ccc3oc(-c4ccc(OC)cc4)c(C#CC4(O)CCCCC4)c3c2)cc1
AC50 [4]: 5.32 µM (active)
AC50 [5]: 29.8 µM (active)

CCOC(=O)c1cc(C)nc(O)c1C#N
AC50 (CAAX prenyl protease 1): 12.3 µM (active)

O=C(c1cnccn1)N(Cc1cccs1)C1(C(=O)NC2CCCCC2)CCCCC1
EC50 [6]: 0.141 µM (active)
IC50 [7]: > 32 µM (inactive)
EC50 [8]: > 32 µM (inactive)
EC50 [9]: 0.444 µM (active)
IC50 [10]: > 32 µM (inactive)
IC50 (Mu-type opioid receptor [11]): > 32 µM (inactive)
EC50 (Mu-type opioid receptor [12]): > 32 µM (inactive)
